Tests used:
[1] = Drug level in scopolamine-induced Sprague-Dawley rat plasma at 0.5 mg/kg, po for 7 days; format: ADME, organism-based
[2] = Drug concentration in Wistar rat plasma at 10 mg/kg, po after 48 hrs by LC-MS/MS analysis; format: ADME, organism-based
[3] = system: Rattus norvegicus; test: Memory enhancement effect in time-delay induced Wistar rat model of amnesia assessed as exploration time for familiar object in retention trial at 0.05 mg/kg, po for 7 days and measured on day 8 by novel object recognition test (reference value: 10.20 sec); format: functional
[4] = system: Rattus norvegicus; test: Memory enhancement effect in time-delay induced Wistar rat model of amnesia assessed as exploration time for familiar object in retention trial at 0.5 mg/kg, po for 7 days and measured on day 8 by novel object recognition test (reference value: 10.20 sec); format: functional
[5] = system: Rattus norvegicus; test: Memory enhancement effect in scopolamine-induced Wistar rat model of amnesia assessed as exploration time for novel object in retention trial at 0.05 mg/kg, po for 7 days and measured on day 8 by novel object recognition test (reference value: 12.09 sec); format: functional

SMILES: CCC(=O)c1sc(-c2ccc(Cl)cc2)c(C)c1-c1ccc(S(N)(=O)=O)cc1
- concentration at 168 h [1]: 580 nM
- concentration at 48 h [2]: 620 nM
- Time [3]: 7.64 s
- Time [4]: 4.9 s
- Time [5]: 14.65 s

From ChEMBL document CHEMBL4354827, “Discovery of Novel, Potent, Brain-Permeable, and Orally Efficacious Positive Allosteric Modulator of α7 Nicotinic Acetylcholine Receptor [4-(5-(4-Chlorophenyl)-4-methyl-2-propionylthiophen-3-yl)benzenesulfonamide]: Structure-Activity Relationship and Preclinical Characterization” (J Med Chem, 2020)
